# Results from patent publication US20200095241A1, “SUBSTITUTED 1,2,4-THIADIAZOLYLPYRROLONES AND 1,2,4-THIADIAZOLYLHYDANTOINS AND SALTS THEREOF AND USE THEREOF AS HERBICIDES” (Bayer CropScience Aktiengesellschaft, priority 2016, published 2020).
# Legend:
# Stellaria media [1] = test: Pre-emergence herbicidal action; type: in vivo; conditions: after about 3 weeks
# Text: (§1) Seeds of monocotyledonous and dicotyledonous weed plants and crop plants were placed in plastic or organic planting pots and covered with soil. The compounds of the invention, formulated in the form of wettable powders (WP) or as emulsion concentrates (EC), were then applied onto the surface of the covering soil as aqueous suspension or emulsion with addition of 0.5% additive at a water application rate of 600 l/ha (converted). After the treatment, the pots were placed in a greenhouse and kept under good growth conditions for the test plants. After about 3 weeks, the effect of the preparations was scored visually in comparison with untreated controls as percentages. For example, 100% activity=the plants have died, 0% activity=like control plants. Tables B1 to B15 below show the effects of selected compounds of the general formula (I) according to Tables I.1 to I.44 on various harmful plants and an application rate corresponding to 1280 g/ha or 320 g/ha, which were obtained by the experimental procedure mentioned above.
# Polygonum convolvulus [2] = test: Pre-emergence herbicidal action; type: in vivo; conditions: 1280 g/ha, after about 3 weeks
# Text: as §1
# Viola tricolor [3] = test: Pre-emergence herbicidal action; type: in vivo; conditions: after about 3 weeks
# Text: as §1
# Abutilon theophrasti [4] = test: Pre-emergence herbicidal action; type: in vivo; conditions: 1280 g/ha, after about 3 weeks
# Text: as §1
# Alopecurus myosuroides = test: Pre-emergence herbicidal action; type: in vivo; conditions: 1280 g/ha, after about 3 weeks
# Text: as §1
# Matricaria inodora [5] = test: Pre-emergence herbicidal action; type: in vivo; conditions: after about 3 weeks; for pest or weed control at 1280 g/ha / Matricaria inodora, herbicidal effect scored visually: 1280 g/ha
# Text: as §1
# Setaria viridis [6] = test: Pre-emergence herbicidal action; type: in vivo; conditions: 1280 g/ha, after about 3 weeks; for pest or weed control at 1280 g/ha: Setaria viridis, 504 h, read-out: Setaria viridis, herbicidal effect scored visually
# Text: as §1
# Pharbitis purpurea = test: Post-emergence herbicidal action; type: in vivo; conditions: about 3 weeks after treatment
# Protocol: (§2) Seeds of monocotyledonous and dicotyledonous weeds and crop plants were placed in sandy loam in plastic or wood-fiber pots, covered with soil and cultivated in a greenhouse under controlled growth conditions. 2 to 3 weeks after sowing, the test plants were treated at the one-leaf stage. The compounds of the invention, formulated in the form of wettable powders (WP) or as emulsion concentrates (EC), were then sprayed onto the green parts of the plants as aqueous suspension or emulsion with addition of 0.5% additive at a water application rate of 600 l/ha (converted). After the test plants had been kept in the greenhouse under optimum growth conditions for about 3 weeks, the activity of the preparations was rated visually in comparison to untreated controls. For example, 100% activity=the plants have died, 0% activity=like control plants. Tables A1 to A12 below show the effects of selected compounds of the general formula (I) according to Tables I.1 to I.44 on various harmful plants and an application rate corresponding to 1280 g/ha or 320 g/ha, which were obtained by the experimental procedure mentioned above.
# Stellaria media [7] = test: Post-emergence herbicidal action; type: in vivo; conditions: about 3 weeks after treatment
# Protocol: as §2
# Viola tricolor [8] = test: Post-emergence herbicidal action; type: in vivo; conditions: 504 h, about 3 weeks after treatment, read-out: Viola tricolor, herbicidal activity rated visually
# Protocol: as §2
# Abutilon theophrasti [9] = test: Post-emergence herbicidal action; type: in vivo; conditions: about 3 weeks after treatment
# Protocol: as §2
# Setaria viridis [10] = test: Post-emergence herbicidal action; type: in vivo; conditions: about 3 weeks after treatment
# Protocol: as §2
# Hordeum murinum = test: Post-emergence herbicidal action; type: in vivo; conditions: 1280 g/ha, about 3 weeks after treatment
# Protocol: as §2
# photosystem II (PS II) = biological target: T1, photosystem II (PS II) (Spinacia oleracea, UniProt P69560); test: Measurement of the PS II activity in thylakoid membranes (DCPIP reduction); type: biochemical; conditions: 100 μM test compound, spinach thylakoid membranes, DCPIP 120 μM, 10 min at 22° C. with exposure to light; for inhibition at 100 µM (stock): read-out: Effect (inhibition of PS II activity)
# T1 construct: the chloroplasts were osmotically ruptured and the thylakoid membranes were then obtained by centrifugation; from tissue; host or cells: fresh spinach leaves; thylakoid membranes isolated from chloroplasts
# Protocol: Cooled fresh spinach leaves were comminuted and homogenized in 50 mM phosphate buffer, pH 6.8. 10 mM KCl, 0.34 M sucrose (sucrose buffer) (blender, 1 g of plant material/ml). The homogenate was subsequently filtered through 4 layers of Miracloth and the chloroplasts were isolated by centrifugation, i.e. 10 min of centrifugation at 4400×g (4° C.). The sediment was suspended in 25 ml of sucrose buffer and re-centrifuged for 10 min at 4400×g (4° C.). The sediment was then suspended in 40 ml of 50 mM phosphate buffer, pH 6.8, 10 mM KCl, without sucrose. In this step, the chloroplasts were osmotically ruptured and the thylakoid membranes were then obtained by centrifugation (10 min, 4400×g, 4° C.). The membrane sediment was finally suspended in 20 ml of 50 mM phosphate buffer, pH 6.8, 10 mM KCl. Following protein determination and activity determination, the membrane suspension was divided into aliquots and frozen in liquid nitrogen. The aliquots were stored at −80° C. Under these conditions, the photosystem II preparation was storage stable for at least three months. The activity determination of photosystem II (PS II) was then carried out using the following test principle:
# The electron transfer from PS II to an artificial electron acceptor, 2,6-dichlorophenolindophenol (DCPIP), was measured with exposure to light. The concentration of the blue oxidized form of DCPIP was determined spectrophotometrically at wavelength λ=595 nm. […] The activity determination was carried out in microtiter plates (96 cavities) in a reaction volume of 200 μl. Here, 155 μl of dilute membrane suspension were initially charged in 50 mM of phosphate buffer, pH 6.8, 10 mM KCl. Depending on the activity of the PS II preparation, the dilution was adjusted such that the measurement of the decrease in absorption (λ=595 nm) was linear for at least 10 min. In each case 5 μl solution of the test compounds of a concentration of 100 μM in DMSO were added to the enzyme suspension; controls contained 5 μl DMSO; the final concentration of DMSO in the reaction batch was thus 2.5% (v/v); this concentration had no adverse effect on the enzymatic activity. On each microtiter plate, a known PS II inhibitor, for example metribuzin, was used as standard, which allowed the quality of the PS II test to be assessed. The reaction was started by addition of 40 μl DCPIP solution (600 μM in distilled water); the final concentration of DCPIP was 120 μM. Measurement of absorption was carried out over a period of 10 min at 22° C. and with exposure to light. Using metribuzin as comparative substance, the results for the efficacy of the compounds of the general formula (I) at 100 μM are stated in the table below using the following classification: ++++ (inhibition≥90%), +++ ([…]≥70%), ++ (70%>inhibition≥50%), + (50%>inhibition≥30%).
# Amaranthus retroflexus [11] = test: Pre-emergence herbicidal action; type: in vivo; conditions: 1280 g/ha, after about 3 weeks
# Text: as §1
# Lolium rigidum = test: Pre-emergence herbicidal action; type: in vivo; conditions: 1280 g/ha, after about 3 weeks
# Text: as §1
# Poa annua = test: Pre-emergence herbicidal action; type: in vivo; conditions: 1280 g/ha, after about 3 weeks
# Text: as §1
# Polygonum convolvulus [12] = test: Post-emergence herbicidal action; type: in vivo; conditions: about 3 weeks after treatment
# Protocol: as §2
# Matricaria inodora [13] = test: Post-emergence herbicidal action; type: in vivo; conditions: 1280 g/ha, about 3 weeks after treatment
# Protocol: as §2
# Amaranthus retroflexus [14] = test: Post-emergence herbicidal action; type: in vivo; conditions: 1280 g/ha, about 3 weeks after treatment
# Protocol: as §2
# Veronica persica = test: Post-emergence herbicidal action; type: in vivo; conditions: 1280 g/ha, about 3 weeks after treatment
# Protocol: as §2
# [15] = Stellaria media, 504 h, 1280 g/ha, read-out: Stellaria media, herbicidal effect scored visually
# [16] = Viola tricolor, 504 h, 1280 g/ha, read-out: Viola tricolor, herbicidal effect scored visually
# [17] = Tripleurospermum inodorum, 504 h, read-out: Matricaria inodora, herbicidal effect scored visually
# [18] = Stellaria media, 504 h, 1280 g/ha, read-out: Stellaria media, herbicidal activity rated visually
# [19] = Abutilon theophrasti, 504 h, 1280 g/ha, read-out: Abutilon theophrasti, herbicidal activity rated visually
# [20] = Setaria viridis, 504 h, 1280 g/ha, read-out: Setaria viridis, herbicidal activity rated visually
compound,measurement,setting,value
"CCCc1nsc(N2C(=O)C(C)=C(C)C2O)n1 (stereo not shown) [I.2-4, 3,4-Dimethyl-5-hydroxy-1-[3-(n-propyl)-1,2,4-thiadiazol-5-yl)-1,5-dihydro-2H-pyrrol-2-one]",pest or weed control at 1280 g/ha,Stellaria media [1]; [15],100%
same,"Polygonum convolvulus, herbicidal effect scored visually",Polygonum convolvulus [2],100%
same,pest or weed control at 1280 g/ha,Viola tricolor [3]; [16],100%
same,"Abutilon theophrasti, herbicidal effect scored visually",Abutilon theophrasti [4],80%
same,"Alopecurus myosuroides, herbicidal effect scored visually",Alopecurus myosuroides,90%
same,pest or weed control at 1280 g/ha,Matricaria inodora [5]; [17],100%
same,pest or weed control at 1280 g/ha,Setaria viridis [6],100%
same,"Pharbitis purpurea, herbicidal activity rated visually",Pharbitis purpurea; 1280 g/ha,90%
same,pest or weed control at 1280 g/ha,Stellaria media [7]; [18],80%
same,pest or weed control at 1280 g/ha,Viola tricolor [8],80%
same,pest or weed control at 1280 g/ha,Abutilon theophrasti [9]; [19],90%
same,pest or weed control at 1280 g/ha,Setaria viridis [10]; [20],100%
same,"Hordeum murinum, herbicidal activity rated visually",Hordeum murinum,80%
same,inhibition at 100 µM (stock),photosystem II (PS II),> 90%
CC1=C(C)C(O)N(c2nc(SCCOC(F)(F)F)ns2)C1=O (stereo not shown) [I.2-338],"Amaranthus retroflexus, herbicidal effect scored visually",Amaranthus retroflexus [11],90%
same,"Stellaria media, herbicidal effect scored visually",Stellaria media [1]; 320 g/ha,90%
same,"Matricaria inodora, herbicidal effect scored visually",Matricaria inodora [5],90%
same,"Setaria viridis, herbicidal effect scored visually",Setaria viridis [6],90%
same,"Lolium rigidum, herbicidal effect scored visually",Lolium rigidum,90%
same,"Poa annua, herbicidal effect scored visually",Poa annua,90%
same,"Stellaria media, herbicidal activity rated visually",Stellaria media [7]; 1280 g/ha,90%
same,"Abutilon theophrasti, herbicidal activity rated visually",Abutilon theophrasti [9]; 320 g/ha,100%
same,Effect (inhibition of PS II activity),photosystem II (PS II),++++ (inhibition≥90%)
"COc1nsc(N2C(=O)C(C)=C(C)C2O)n1 (stereo not shown) [I.2-363, 3,4-Dimethyl-5-hydroxy-1-(3-methoxy-1,2,4-thiadiazol-5-yl)-1,5-dihydro-2H-pyrrol-2-one]",pest or weed control at 320 g/ha,"Stellaria media [1]; Stellaria media, 504 h, 320 g/ha, read-out: Stellaria media, herbicidal effect scored visually",100%
same,pest or weed control at 320 g/ha,"Viola tricolor [3]; Viola tricolor, 504 h, 320 g/ha, read-out: Viola tricolor, herbicidal effect scored visually",80%
same,pest or weed control at 320 g/ha,"Matricaria inodora [5]; Tripleurospermum inodorum, 504 h, 320 g/ha, read-out: Matricaria inodora, herbicidal effect scored visually",90%
same,"Pharbitis purpurea, herbicidal activity rated visually",Pharbitis purpurea; 320 g/ha,80%
same,pest or weed control at 320 g/ha,"Stellaria media [7]; Stellaria media, 504 h, 320 g/ha, read-out: Stellaria media, herbicidal activity rated visually",90%
same,"Polygonum convolvulus, herbicidal activity rated visually",Polygonum convolvulus [12]; 320 g/ha,100%
same,pest or weed control at 320 g/ha,Viola tricolor [8]; 320 g/ha,100%
same,pest or weed control at 320 g/ha,"Abutilon theophrasti [9]; Abutilon theophrasti, 504 h, 320 g/ha, read-out: Abutilon theophrasti, herbicidal activity rated visually",90%
same,pest or weed control at 320 g/ha,"Setaria viridis [10]; Setaria viridis, 504 h, 320 g/ha, read-out: Setaria viridis, herbicidal activity rated visually",100%
same,inhibition at 100 µM (stock),photosystem II (PS II),> 90%
"CC1=C(Cl)C(=O)N(c2nc(C(C)C)ns2)C1O (stereo not shown) [I.3-5, 3-Chloro-4-methyl-5-hydroxy-1-(3-isopropyl-1,2,4-thiadiazol-5-yl)-1,5-dihydro-2H-pyrrol-2-one]",pest or weed control at 1280 g/ha,Stellaria media [1]; [15],90%
same,pest or weed control at 1280 g/ha,Matricaria inodora [5]; [17],90%
same,pest or weed control at 1280 g/ha,Setaria viridis [6],90%
same,"Poa annua, herbicidal effect scored visually",Poa annua,90%
same,pest or weed control at 1280 g/ha,Stellaria media [7]; [18],100%
same,"Matricaria inodora, herbicidal activity rated visually",Matricaria inodora [13],100%
CC1=C(Br)C(=O)N(c2nc(C)ns2)C1O (stereo not shown) [I.5-2],"Stellaria media, herbicidal effect scored visually",Stellaria media [1]; 1280 g/ha,90%
same,"Polygonum convolvulus, herbicidal effect scored visually",Polygonum convolvulus [2],80%
same,"Viola tricolor, herbicidal effect scored visually",Viola tricolor [3]; 1280 g/ha,90%
same,"Alopecurus myosuroides, herbicidal effect scored visually",Alopecurus myosuroides,80%
same,"Matricaria inodora, herbicidal effect scored visually",Matricaria inodora [5],90%
same,"Abutilon theophrasti, herbicidal activity rated visually",Abutilon theophrasti [9]; 1280 g/ha,80%
same,"Setaria viridis, herbicidal activity rated visually",Setaria viridis [10]; 1280 g/ha,80%
"CC(C)c1nsc(N2C(=O)N(C)CC2O)n1 (stereo not shown) [I.13-5, 4-Hydroxy-1-methyl-3-[3-(isopropyl)-1,2,4-thiadiazol-5-yl]imidazolidin-2-one]","Amaranthus retroflexus, herbicidal effect scored visually",Amaranthus retroflexus [11],100%
same,pest or weed control at 1280 g/ha,Stellaria media [1]; [15],90%
same,"Polygonum convolvulus, herbicidal effect scored visually",Polygonum convolvulus [2],90%
same,pest or weed control at 1280 g/ha,Viola tricolor [3]; [16],90%
same,pest or weed control at 1280 g/ha,Matricaria inodora [5]; [17],90%
same,pest or weed control at 1280 g/ha,Setaria viridis [6],80%
same,"Amaranthus retroflexus, herbicidal activity rated visually",Amaranthus retroflexus [14],100%
same,"Veronica persica, herbicidal activity rated visually",Veronica persica,100%
same,"Pharbitis purpurea, herbicidal activity rated visually",Pharbitis purpurea; 1280 g/ha,90%
same,pest or weed control at 1280 g/ha,Stellaria media [7]; [18],100%
same,"Polygonum convolvulus, herbicidal activity rated visually",Polygonum convolvulus [12]; 1280 g/ha,90%
same,pest or weed control at 1280 g/ha,Viola tricolor [8],100%
same,pest or weed control at 1280 g/ha,Abutilon theophrasti [9]; [19],100%
same,pest or weed control at 1280 g/ha,Setaria viridis [10]; [20],100%
same,inhibition at 100 µM (stock),photosystem II (PS II),70 to 90%
